This experiment addresses T1, CCL2 (Homo sapiens, UniProt P13500).
T1 construct: purchased R&D systems
Nature of the experiment: Selectivity, neutraligand protocol, EGFP-CCR2+ HEK cells. The class given is cell-based. Conditions: 10 μM compound, 5 nM CCL2, EGFP-CCR2+ HEK cells. As to the method: Figure 6 (a) Selectivity of CCL17 and CCL22 neutraligands towards 10 chemokines according to the “neutraligand protocol”. […] Each column represents the mean (block) ± SD (bars) of n = 3 experiments performed in triplicate. *p < 0.05; **p < 0.01; ***p < 0.005 as compared to chemokine + DMSO. (b) Chemokine neutraligands inhibited CCR4 endocytosis induced by CCL22 or CCL17. EGFP-CCR4^+ HEK cells were incubated for 30 min with DMSO or chemokine (100 nM CCL22 or CCL17) in the presence or absence of test compounds. […] Cell surface EGFP-tagged CCR4 receptors were measured by EGFP antibody labeling and flow cytometry analysis. CCR4 internalization was expressed as a percentage of total receptor surface expression calculated using control cells incubated with DMSO (100%). […] The number of migrating cells in the presence of chemokine and compounds were expressed as the corresponding percentages. Results were analyzed by fitting the experimental curves (% of migrating cells vs log compound concentration) using the Kaleidagraph software program, and the corresponding IC50 values were calculated. […]
Dye loaded cells were placed in the FlexStation 3 (Molecular Devices). Calcium mobilization was measured at 401 and 475 nm emission fluorescence after excitation at 355 nm. […] Raw fluorescence data (at 401 and 475 nm) were exported and the ratio 401/475 was calculated. […]

Here are results for one compound from article PMC4595804, “A strategy to discover decoy chemokine ligands with an anti-inflammatory activity” (Scientific Reports, 2015).

T1 sequence (P13500 24-99): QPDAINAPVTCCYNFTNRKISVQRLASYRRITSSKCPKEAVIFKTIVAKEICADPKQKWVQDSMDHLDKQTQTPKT

As to `O=C(OCC(O)CO)c1ccccc1O` (stereo not shown) [GPN136, 2,3-dihydroxypropyl 2-hydroxybenzoate], the “effect on calcium responses induced by CCL2” value is “no effect”.
